US11229685B2, “Fungal iron acquisition inhibitors and uses thereof” (priority 2013, dated 2022)
Like-named read-outs stand apart in the source and are kept apart here.

Tests used:
[1] = tested on: A. fumigatus; assay: In vitro human neutrophil:hyphae growth inhibition assay (calcofluor white fluorometry); type: cell-based, Aspergillus fumigatus; settings: for growth of A. fumigatus: incubation in media for 16 h
Experimental: (§1) FIGS. 8(A-G) illustrate a schematic drawing, images, and graphs showing the effect of topical simvastatin and deriprone on fungal infection. A. Statin targeting of fungal HMG-CoA reductase in siderophore biosynthesis. B, C. Effect of statins and iron chelators on growth of A. fumigatus and F. oxysporum in vitro. B. Simvastatin, lovastatin, deferiprone, or deferroxamine were added to growing cultures of A. fumigatus or C. F. oxysporum for 16 h, and hyphal growth was quantified by calcofluor white. D. Growth of A. fumigatus incubated with these compounds in the absence (black bars) or presence (gray bars) of human neutrophils by calcofluor white quantification (data are mean+/−SEM of five replicate wells) E. C57BL/6 mice were infected with A. fumigatus and at 0 and 6 h post-infection 13.4 μg of simvastatin (Sv), deferiprone (11.1 μg), deferroxamine (52.5 μg), Sv+ deferiprone, or Sv+ deferroxamine was applied topically to infected corneas and eyes were imaged at 24 h post-infection. F. Metamorph image analysis was used to quantify fungal dsRed expression and G. eyes were homogenized for CFU analysis. B-D: data are mean+/−SEM of five replicate wells; F, G: data points represent individual corneas.
Human neutrophils were isolated from normal, healthy donors using Ficoll-Paque Plus (GE) density centrifugation as described. Isolated conidia from each A. fumigatus mutant were cultured in 200 μl SDA media (12,500/well) in black-wall 96 well plates with an optically clear bottom (CoStar 3720) until early germ tubes were observed (4-6 h). Wells were washed twice with sterile ddH2O and incubated 16 h with either RPMI media (+ Control), PBS (− Control), or a sublethal dose of human peripheral blood neutrophils in RPMI (0.5−1*10^5/well). At 16 h post-exposure, plates were washed once and stained with 50 μl calcofluor white stain (Binds chitin; Fluka 18909) for 5 min in the dark. Subsequently, plates were washed three times with ddH2O and quantified by fluorometry (360/440 nm; Synergy HT; Biotek).
HMG CoA reductase is required for mevalonate production and can be targeted by statins resulting in decreased siderophore biosynthesis (FIG. 8A). To determine the effect of blocking this pathway on fungal growth, A. fumigatus and Fusarium oxysporum were incubated in media with simvastatin and lovastatin, or with the iron chelators, deferiprone and deferroxamine.

[2] = tested on: A. fumigatus strain dsRed; type: in vivo, Aspergillus fumigatus; settings: C57BL/6 mice
Experimental: Aspergillus and Fusarium strains were cultured as described above for 2-3 days, and fresh conidia were disrupted with a bacterial L-loop, harvested in 5 ml PBS, and filtered through sterile PBS soaked cotton gauze in a 10 ml syringe to obtain pure conidial suspensions. Conidia were quantified using a hemocytometer and adjusted in PBS to a final stock solution of 15-20,000 conidia/μl. Mice were anaesthetized with 1.25% 2,2,2-tri-bromoethanol in PBS. The corneal epithelium was abraded using a 30-gauge needle, through which a 2 μl injection containing conidia was released into the corneal stroma using a 33-gauge Hamilton syringe. Mice were examined daily under a stereomicroscope for corneal opacification, and quantified by image analysis using Metamorph software as described. At each time point, animals were euthanized by CO2 asphyxiation, and eyes were either placed in 10% formalin and embedded in paraffin, sectioned at 5 μm intervals and stained with periodic acid schiff and hematoxylin (PASH), or were placed in 1 ml of sterile PBS, homogenized and colony forming units (CFU) were quantified by manual count.
For topical drug delivery, compounds were suspended in a commercial eye drop formulation (Alcon laboratories) or in PBS and 8 μl applied topically at 0 h and 6 h post-infection. Lactoferrin (1.25 mg/ml), deferiprone (10 mM), deferroxamine (10 mM), and simvastatin (4 mM) were purchased from Sigma Aldrich (St. Louis, Mo.). BEC (28 mM) was obtained from Cayman chemicals (Ann Arbor, Mich.). E. coli-expressed recombinant human lipocalin-1 was purified as described previously and applied topically at 2 mg/ml. Iron-dextran and deferroxamine were both purchased from Sigma and administered systemically to mice via daily I.P. injections of 5 mg starting at day −2 until mice were euthanized. All animals were bred under specific pathogen-free conditions and maintained according to institutional guidelines.
Growth of the RFP expressing A. fumigatus strain in the cornea was detected using fluorescent microscopy and quantified by Metamorph image analysis. For assessment of fungal viability, whole eyes were homogenized under sterile conditions in 1 ml PBS, using the Mixer Mill MM300 (Retsch) at 33 Hz for 4 min. Subsequently, 100 μl aliquots were plated onto bacteriologic-grade sabouraud dextrose agar plates, incubated for 24 h at 37° C. (Aspergillus) or at 30° C. (Fusarium and Alternaria), and the number of CFUs was determined by direct counting.

[3] = tested on: F. oxysporum; assay: In vitro hyphal growth of F. oxysporum with statins and iron chelators (calcofluor white); type: cell-based, Fusarium oxysporum; settings: incubation in media for 16 h; b217 says results similar to A. fumigatus (less growth with statins and deferiprone, not deferroxamine)
Experimental: as §1, with “B-D: data are mean+/−SEM of five replicate wells; F, G: data points represent individual corneas.” left out
Human neutrophils were isolated from normal, healthy donors using Ficoll-Paque Plus (GE) density centrifugation as described. […] Subsequently, plates were washed three times with ddH2O and quantified by fluorometry (360/440 nm; Synergy HT; Biotek). […]

[4] = plus human neutrophils, vs neutrophils alone
[5] = topical 16 μg/8 μl at 0 h and 6 h after infection, vs infected mice without exogenous Lcn-1
[6] = topical 10.4 μg in 8 μl at 0 h and 6 h post-infection, 24 h post-infection, vs vehicle

For Cc1c(O)c(=O)ccn1C [deferiprone, 1,2 dimethyl-3-hydroxypyrid-4-1], the “growth of A. fumigatus” value ([1]; no neutrophils) was “significantly less growth”, the “A. fumigatus growth in the presence of human neutrophils” value [1, 4] was “inhibited” and the “fungal dsRed emission” value ([2]; topical at 0 and 6 h post-infection (simvastatin 13.4 μg, deferiprone 11.1 μg, deferroxamine 52.5 μg), 24 h, vs vehicle-treated mice) was “significantly less”.

With CC[C@H](C)C(=O)O[C@H]1C[C@@H](C)C=C2C=C[C@H](C)[C@H](CC[C@@H]3C[C@@H](O)CC(=O)O3)[C@H]21 [lovastatin] the “growth of Fusarium oxysporum” value [3] was “significantly less fungal cell growth”, the “growth of A. fumigatus” value ([1]; no neutrophils) was “significantly less growth” and the “A. fumigatus growth in the presence of human neutrophils” value [1, 4] was “inhibited”.

With N=C(NO)NCC[C@H](N)C(=O)O [nNOHA, N^ω-Hydroxy-nor-L-arginine] the fungal growth ([1]; 100 μM, no neutrophils, vs RPMI alone) was “significantly lower than in RPMI alone” and the “fungal growth when incubated with neutrophils” value ([1]; plus human neutrophils, vs neutrophils alone, concentration not given) was “not significantly different from neutrophils alone”.

For “Lcn-1: E. coli-expressed recombinant human lipocalin-1, siderophore binding protein”, the “A. fumigatus growth in the presence of neutrophils” value ([1]; 4 μg/ml plus human neutrophils, vs neutrophils alone or Lcn-1 alone) was “significantly less than in the presence of neutrophils alone or with Lcn-1 alone”, the fungal growth ([1]; 4 μg/ml, absence of neutrophils) was “significantly less” and the fungal growth ([1]; 40 μg/ml, absence of neutrophils) was “significantly less”. The CFU [2, 5] was “significantly less” and the “fungal dsRed” value [2, 5] was “significantly less”.

With lactoferrin the CFU [2, 6] was “significantly less” and the “fungal mass (dsRed)” value [2, 6] was “significantly less”.
